Where “and” joins values, the source holds several entries; their conditions need not be identical. Identical values can stand only once.
Tested on: Spring Argentine canola (Brassica napus, BRSNS)
Assay: Example 3 field trials (Canada), postemergence crop safety, visual phytotoxicity
[1] = BRSNS, trial 1, 17DAA1, 150 g ae/ha
[2] = BRSNS, trial 1, 32DAA1, 150 g ae/ha

SMILES: O=C(O)c1nc(Cl)ccc1Cl [Clopyralid-olamine, 2-hydroxyethanaminium 3,6-dichloro-2-pyridinecarboxylate]
- Mean % Visual Injury (BRSNS, 7DAAA, 150 g ae/ha (Tables 10, 11)): 0.0%
- Mean % Visual Injury (BRSNS, 15DAAA, 150 g ae/ha (Tables 10, 11)): 1.5%
- Mean % Visual Injury (BRSNS, 27DAAA, 150 g ae/ha (Tables 10, 11)): 1.0%
- Mean % Visual Injury (BRSNS, 57DAAA, 150 g ae/ha (Tables 10, 11)): 2.0%
- Mean % Visual Deformation (BRSNS, 60DAA1, 150 g ae/ha): 0.0%
- Mean % Visual Injury (BRSNS, trial 1, 7DAA1, 150 g ae/ha): 1.0%
- Mean % Visual Epinasty [1]: 1.0%
- Mean % Visual Injury [1]: 1.3%
- Mean % Visual Epinasty [2]: 3.5%
- Mean % Visual Injury [2]: 7.0%
- Mean % Visual Injury (BRSNS, trial 1, 49DAA1, 150 g ae/ha): 2.8%
- Mean % Visual Injury (BRSNS, trial 2, 8DAA1, 150 g ae/ha): 1.8% and 2.0% and 1.3% and 1.4% and 1.5% and 1.0%
- Mean % Visual Injury (BRSNS, trial 2, 17DAA1, 150 g ae/ha): 2.5%
- Mean % Visual Epinasty (BRSNS, trial 2, 35DAA1, 150 g ae/ha): 3.5% and 2.0%
- Mean % Visual Injury (BRSNS, trial 2, 48DAA1, 150 g ae/ha): 2.0% and 0.8%
- Mean % Visual Epinasty (BRSNS, trial 3, 6DAA1, 150 g ae/ha): 0.0%
- Mean % Visual Epinasty (BRSNS, trial 3, 23DAA1, 150 g ae/ha): 0.0%
- Mean % Visual Injury (BRSNS, trial 3, 33DAA1, 150 g ae/ha): 0.5% and 1.0%
- Mean % Visual Injury (BRSNS, trial 3, 69DAA1, 150 g ae/ha): 0.0%
- Mean % Visual Injury (BRSNS, trial 4, 8DAA1, 150 g ae/ha): 1.5%
- Mean % Visual Injury (BRSNS, trial 4, 15DAA1, 150 g ae/ha): 1.5%
- Mean % Visual Epinasty (BRSNS, trial 4, 17DAA1, 200 g ae/ha): 0.0%
- Mean % Visual Injury (BRSNS, trial 4, 41DAA1, 150 g ae/ha): 0.8%
- Mean % Visual Injury (BRSNS, trial 4, 82DAA1, 150 g ae/ha): 0.0%
- Mean % Visual Injury (BRSNS, trial 5, 7DAA1, 150 g ae/ha): 0.5% and 0.0% and 1.3% and 1.5%
- Mean % Visual Injury (BRSNS, trial 5, 15DAA1, 150 g ae/ha): 0.0% and 0.5%
- Mean % Visual Injury (BRSNS, trial 5, 36DAA1, 150 g ae/ha): 0.5%
- Mean % Visual Injury (BRSNS, trial 5, 79DAA1, 150 g ae/ha): 0.0%
- Mean % Visual Injury (BRSNS, trial 6, 6DAA1, 150 g ae/ha): 0.0%
- Mean % Visual Injury (BRSNS, trial 6, 23DAA1, 150 g ae/ha): 0.0%
- Mean % Visual Injury (BRSNS, trial 6, 33DAA1, 150 g ae/ha): 2.0%
- Mean % Visual Injury (BRSNS, trial 6, 59DAA1, 150 g ae/ha): 3.5%
- Mean % Visual Injury (BRSNS, trial 7, 17DAA1, 100 g ae/ha): 0.0%
- Mean % Visual Injury (BRSNS, trial 7, 17DAA1, 150 g ae/ha): 0.0%
- Mean % Visual Injury (BRSNS, trial 7, 17DAA1, 200 g ae/ha): 0.0%
- Mean % Visual Injury (BRSNS, trial 7, 27DAA1, 150 g ae/ha): 0.0%
- Mean % Visual Injury (BRSNS, trial 7, 27DAA1, 200 g ae/ha): 3.0%
- Mean % Visual Injury (BRSNS, trial 8, 7DAA1, 150 g ae/ha): 1.5%
- Mean % Visual Injury (BRSNS, trial 8, 57DAA1, 150 g ae/ha): 2.3%
- Mean % Visual Injury (BRSNS, trial 9, 27DAA1, 150 g ae/ha): 1.0%
- Mean % Visual Injury (BRSNS, trial 9, 60DAA1, 150 g ae/ha): 0.0%
- Mean % Visual Injury (Table 15, 7DAAA, halauxifen-methyl 5, clopyralid-olamine 150, quinclorac 101 g ae/ha, alone or mixed): 0.0%
- Mean % Visual Injury (Table 15, 15DAAA, halauxifen-methyl 5, clopyralid-olamine 150, quinclorac 101 g ae/ha, alone or mixed): 1.5%
- Mean % Visual Injury (Table 15, 27DAAA, halauxifen-methyl 5, clopyralid-olamine 150, quinclorac 101 g ae/ha, alone or mixed): 1.0%
- Mean % Visual Injury (Table 15, 57DAAA, halauxifen-methyl 5, clopyralid-olamine 150, quinclorac 101 g ae/ha, alone or mixed): 2.0%
- Mean % Visual Injury (Table 17, 7DAAA, halauxifen-methyl 5, clopyralid-olamine 150 g ae/ha alone, or both mixed with isoxadifen-ethyl 5 g ae/ha): 0.0%
- Mean % Visual Injury (Table 17, 15DAAA, halauxifen-methyl 5, clopyralid-olamine 150 g ae/ha alone, or both mixed with isoxadifen-ethyl 5 g ae/ha): 1.5%
- Mean % Visual Injury (Table 17, 27DAAA, halauxifen-methyl 5, clopyralid-olamine 150 g ae/ha alone, or both mixed with isoxadifen-ethyl 5 g ae/ha): 1.0%
- Mean % Visual Injury (Table 17, 57DAAA, halauxifen-methyl 5, clopyralid-olamine 150 g ae/ha alone, or both mixed with isoxadifen-ethyl 5 g ae/ha): 2.0%
- Mean % Visual Injury (Table 18, 8DAAA, halauxifen-methyl 5, clopyralid-olamine 150 g ae/ha, alone or mixed): 0.5%
- Mean % Visual Injury (Table 18, 14DAAA, halauxifen-methyl 5, clopyralid-olamine 150 g ae/ha, alone or mixed): 0.5%
- Mean % Visual Injury (Table 18, 40DAAA, halauxifen-methyl 5, clopyralid-olamine 150 g ae/ha, alone or mixed): 0.0%
- Mean % Visual Injury (Table 18, 81DAAA, halauxifen-methyl 5, clopyralid-olamine 150 g ae/ha, alone or mixed): 0.0%
- Mean % Visual Injury (Table 19, 8DAAA, halauxifen-methyl 5, clopyralid-olamine 150 g ae/ha alone, or both mixed with isoxadifen-ethyl 20 g ae/ha): 0.5%
- Mean % Visual Injury (Table 19, 14DAAA, halauxifen-methyl 5, clopyralid-olamine 150 g ae/ha alone, or both mixed with isoxadifen-ethyl 20 g ae/ha): 0.5%
- Mean % Visual Injury (Table 19, 40DAAA, halauxifen-methyl 5, clopyralid-olamine 150 g ae/ha alone, or both mixed with isoxadifen-ethyl 20 g ae/ha): 0.0%
- Mean % Visual Injury (Table 19, 81DAAA, halauxifen-methyl 5, clopyralid-olamine 150 g ae/ha alone, or both mixed with isoxadifen-ethyl 20 g ae/ha): 0.0%
- Mean % Visual Injury (Table 22, 8DAAA, halauxifen-methyl 5, clopyralid-olamine 150, quinclorac 101 g ae/ha, alone or mixed): 0.5%
- Mean % Visual Injury (Table 22, 14DAAA, halauxifen-methyl 5, clopyralid-olamine 150, quinclorac 101 g ae/ha, alone or mixed): 0.5%
- Mean % Visual Injury (Table 22, 40DAAA, halauxifen-methyl 5, clopyralid-olamine 150, quinclorac 101 g ae/ha, alone or mixed): 0.0%
- Mean % Visual Injury (Table 22, 81DAAA, halauxifen-methyl 5, clopyralid-olamine 150, quinclorac 101 g ae/ha, alone or mixed): 0.0%
- Mean % Visual Injury (Table 23, 7DAAA, halauxifen-methyl 5, clopyralid-olamine 150 g ae/ha, alone or mixed): 2.0%
- Mean % Visual Injury (Table 23, 17DAAA, halauxifen-methyl 5, clopyralid-olamine 150 g ae/ha, alone or mixed): 1.0%
- Mean % Visual Injury (Table 23, 32DAAA, halauxifen-methyl 5, clopyralid-olamine 150 g ae/ha, alone or mixed): 2.0%

From patent publication US20170354148A1, “SAFENED HERBICIDAL COMPOSITIONS CONTAINING HALAUXIFEN AND METHODS OF USE THEREOF IN BRASSICA SPECIES” (Dow AgroSciences LLC, priority 2016, published 2017)
